Literature values in US5945412A, “Methods and compositions for preventing and treating bone loss” (Merck & Co., Inc., priority 1997, dated 1999).

System: human type 2 enzyme (5α-reductase)
Settings: background statement

CC(C)(C)NC(=O)[C@H]1CC[C@H]2[C@@H]3CC[C@H]4NC(=O)C=C[C@]4(C)[C@H]3CC[C@]12C [Finasteride, 17β-(N-tert-butylcarbamoyl)-3-oxo-4-aza-5α-androst-1-en-3-one]
inhibition of the human type 2 enzyme (in words): potent inhibitor
